From patent US10647694B2, “Diphenylaminopyrimidine and triazine compound, and pharmaceutical composition and use thereof” (ARROMAX PHARMATECH CO., LTD., priority 2016, dated 2020)
Like-named read-outs stand apart in the source and are kept apart here. Values belong to the compound of their own block, whether it stands above or below them.

What was measured:
Karpas 299 cells = experiment: Tumor cell growth inhibition test (CCK8 detection), Karpas 299; type: cell-based, human
Method: (§1) Growth Inhibition Test of the Series of Compounds on Various Tumor Cells (CCK8 Detection)
(2) Karpas 299 human T lymphoma cell line, RPMI 1640+10% FBS+1% Sodium Pyruvate;
(§2) (1) Cell culture • a) Cells in logarithmic growth phase were collected, counted, and re-suspended in a complete medium. • b) The cell concentration was adjusted to an appropriate concentration, and inoculated into a 96-well plate in an amount of 100 μl of cell suspension per well. • c) The cells were incubated for 24 hrs in an incubator at 37° C. with 100% relative humidity and 5% CO2.
(§3) (2) Test of relative inhibition rate • 1) Cells in logarithmic growth phase were collected, counted, and re-suspended in a complete medium. The cell concentration was adjusted to an appropriate concentration (determined according to the optimal test result of cell density), and inoculated into a 96-well plate in an amount of 100 μl of cell suspension per well. The cells were incubated for 24 hrs in an incubator at 37° C. with 100% relative humidity and 5% CO2. • 2) The compound to be tested was diluted with the medium to the corresponding action concentration, and […] were added in an amount of 25 µl/well.
(§4) The IC50 curve was fitted using the software Graphpad Prism 5 and using the calculation formula log(inhibitor) vs response and the IC50 value was calculated.

ALK enzyme = ALK enzyme (Homo sapiens, UniProt Q9UM73); experiment: In-vitro ALK kinase inhibitory activity (HTRF kinEASE TK kit); type: biochemical; details: inhibitory activity for ALK enzyme
ALK enzyme, sequence (Q9UM73 19-1620 limits assumed): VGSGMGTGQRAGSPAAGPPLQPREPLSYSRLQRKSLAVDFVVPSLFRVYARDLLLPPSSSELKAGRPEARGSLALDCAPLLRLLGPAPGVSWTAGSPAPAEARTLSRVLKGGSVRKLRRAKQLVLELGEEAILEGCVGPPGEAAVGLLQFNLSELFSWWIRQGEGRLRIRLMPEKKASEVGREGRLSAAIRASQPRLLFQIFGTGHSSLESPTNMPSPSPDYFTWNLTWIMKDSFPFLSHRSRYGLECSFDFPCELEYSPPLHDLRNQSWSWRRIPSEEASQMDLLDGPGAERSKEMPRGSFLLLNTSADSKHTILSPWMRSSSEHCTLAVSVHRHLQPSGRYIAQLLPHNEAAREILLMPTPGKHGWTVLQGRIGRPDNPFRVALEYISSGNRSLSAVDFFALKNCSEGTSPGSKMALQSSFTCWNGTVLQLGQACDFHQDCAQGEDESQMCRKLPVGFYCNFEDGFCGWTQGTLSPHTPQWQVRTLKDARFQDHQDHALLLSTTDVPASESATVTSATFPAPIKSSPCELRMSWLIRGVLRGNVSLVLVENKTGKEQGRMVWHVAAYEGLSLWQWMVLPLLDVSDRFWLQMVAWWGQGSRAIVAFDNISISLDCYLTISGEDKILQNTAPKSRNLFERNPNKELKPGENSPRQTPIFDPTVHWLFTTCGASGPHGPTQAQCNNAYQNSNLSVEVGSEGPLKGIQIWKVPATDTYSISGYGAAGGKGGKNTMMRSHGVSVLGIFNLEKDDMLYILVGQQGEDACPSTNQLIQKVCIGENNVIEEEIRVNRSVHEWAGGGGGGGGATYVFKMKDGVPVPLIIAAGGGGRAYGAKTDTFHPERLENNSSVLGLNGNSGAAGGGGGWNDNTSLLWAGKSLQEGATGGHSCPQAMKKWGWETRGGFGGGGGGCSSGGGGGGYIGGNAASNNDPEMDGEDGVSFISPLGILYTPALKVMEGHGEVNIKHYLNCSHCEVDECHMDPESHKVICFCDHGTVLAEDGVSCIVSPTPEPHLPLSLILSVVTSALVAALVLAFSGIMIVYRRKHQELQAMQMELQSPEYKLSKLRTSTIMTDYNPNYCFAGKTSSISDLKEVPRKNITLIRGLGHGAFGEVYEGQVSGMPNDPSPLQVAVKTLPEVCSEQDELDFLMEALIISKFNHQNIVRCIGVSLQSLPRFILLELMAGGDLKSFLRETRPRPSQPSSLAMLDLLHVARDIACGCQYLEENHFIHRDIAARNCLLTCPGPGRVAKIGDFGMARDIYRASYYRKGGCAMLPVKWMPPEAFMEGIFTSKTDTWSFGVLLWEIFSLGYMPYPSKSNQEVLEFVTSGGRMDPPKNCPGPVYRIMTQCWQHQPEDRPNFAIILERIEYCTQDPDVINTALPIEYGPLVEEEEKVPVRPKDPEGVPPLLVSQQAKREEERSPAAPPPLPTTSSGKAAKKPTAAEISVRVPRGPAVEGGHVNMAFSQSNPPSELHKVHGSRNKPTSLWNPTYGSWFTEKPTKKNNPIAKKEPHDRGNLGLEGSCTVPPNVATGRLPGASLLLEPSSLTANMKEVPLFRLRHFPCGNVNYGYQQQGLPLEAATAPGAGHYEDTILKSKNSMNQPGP
Method: Anaplastic Lymphoma Kinase (ALK) Inhibitory Activity The in-vitro kinase assay was performed using the HTRF kinEASE TK kit available from Cisbio. The operation steps are indicated in the instructions of the kit. This method was used to detect the inhibitory effect of the compound to be tested on the activity of ALK enzymes in vitro, including wild-type ALK (Cat.PV3867, Invitrogen), ALK L1196M (Cat. PV6168, Life technologies), and ALK F1174L (Cat. PV6160, Life technologies). The specific operation steps were as follows. […] In addition to the control wells, 4 μL of the diluted compound solution to be tested was added to the reaction wells, and 4 μL of the 2.5% DMSO solution corresponding to the ALK enzyme previously formulated was added to the control wells. (2) 2 μL of a TK-biotin substrate solution previously formulated in a substrate concentration corresponding to the ALK enzyme was added to all reaction wells. (3) 2 μL of a previously prepared enzyme solution of corresponding concentration was added to all the reaction wells except the negative wells, and 2 μL of the 1× kinase buffer corresponding to the enzyme was added to the negative wells to make up the volume. The plate was sealed with a membrane, and incubated for 10 min at room temperature after mixing uniformly, such that the compounds were bond to the enzyme fully. (4) 2 μL of an ATP solution in a concentration corresponding to the ALK enzyme was added to all the reaction wells to initiate the kinase reaction, where the enzyme reaction time by ALK was 60 minutes. (5) An ALK test solution was prepared 5 minutes before the end of the kinase reaction. Streptavidin-XL665 and TK antibody europium cryptate (1:100) solutions for assay having a concentration corresponding to the enzyme were prepared using the detection buffer in the kit. (6) After the completion of the kinase reaction, 5 μl of diluted Streptavidin-XL665 was added to all the reaction wells respectively, and mixed uniformly, and then the diluted TK antibody europium cryptate solution for assay was added immediately. (7) The plate was sealed, mixed uniformly and allowed to react at room temperature for 1 h. The fluorescence signal (excitation at 320 nm, and emission at 665 nm and 615 nm) was detected using the ENVISION instrument (Perkinelmer). The inhibition rate for each well was calculated from the values of the fully active wells and the background signal wells. The values of replicated wells were averaged, and the half-maximal inhibitory activity (IC50) of each compound to be tested was fitted with a professional drawing analysis software PRISM 5.0.

NCI-H2228 cells = experiment: Tumor cell growth inhibition test (CCK8 detection), NCI-H2228; type: cell-based, human
Method: as §1
(3) NCI-H2228 human non-small cell lung cancer cell line, RPMI 1640+10% FBS+1% Sodium Pyruvate;
as §2, §3, §4

Ba/F3 cells = experiment: Tumor cell growth inhibition test (CCK8 detection), Ba/F3; type: cell-based, mouse
Method: as §1
(1) Ba/F3 mouse IL-3 dependent pro-B lymphocyte cell line, RPMI 1640+10% FBS+10 ng/ml Interleukin-3+1% Sodium Pyruvate;
as §2, §3, §4

NCI-H3122 cells = experiment: Tumor cell growth inhibition test (CCK8 detection), NCI-H3122; type: cell-based, human
Method: as §1
(4) NCI-H3122 human lung cancer cell line, RPMI 1640+10% FBS+1% Sodium Pyruvate;
as §2, §3, §4

[1] = tested on: NCI-H2228 nude mice xenografts; experiment: In-vivo pharmacodynamic evaluation, NCI-H2228 subcutaneous xenograft; details: 14 days, day 21
Method: In-Vivo Pharmacodynamic Evaluation
SCID Beige mice, female, 5-6 weeks old, weighed 18+2 g, purchased from Beijing HFK Bioscience Co., Ltd., bred in an SPF level environment.
NCI-H2228 cells were cultured in PRMI-1640 containing 10% fetal bovine serum (FBS) and 1% sodium pyruvate. The cells were cultured in an incubator at 37° C. with 5% CO2.
Establishment of subcutaneous tumor transplantation model in nude mice by cell inoculation: Tumor cells in logarithmic growth phase were collected, counted and re-suspended in PRMI-1640 basal medium. Matrigel was added at a ratio of 1:1, and the concentration of the cell suspension was adjusted to 6×10^7/ml. Tumor cells were subcutaneously inoculated to the right back of nude mice in an amount of 6×10^6/0.1 mL/mouse using a 1 mL syringe (with a […]).
When the tumor volume reached about 200 mm^3, the animals were randomly grouped according to randomized block method, so that the difference in tumor volume of each group was within 10% of the mean. There were 5 groups in total, each having 8 animals. The day of grouping was recorded as Day 0, and the animals were administered immediately after grouping. Compound I-3 of the present invention and Ceritinib were orally administered once a day for consecutive 14 days, and then observed for 7 days. The weight and tumor size of the animals were measured twice a week during the experiment. The clinical symptoms were observed and recorded daily. After the animals were weighed for the last time on Day 21, they were sacrificed by euthanization with CO2. The tumors were taken, weighed and photographed, and the average tumor size was calculated, to investigate the growth inhibitory effect of the test substance Compound I-3 on human lung cancer NCI-H2228 nude mice xenografts under the experimental conditions.
When the tumor in the tumor-bearing mice grew to a measurable size, the mice were randomly divided into 5 groups according to the principle of equal mean tumor volume using SPSS 17.0 software. Compound I-3 was administered by intragastric administration at a dosage of 30, 10, and 3 mg/kg per day. The positive control ceritinib was administered by intragastric administration at a dose of 10 mg/kg per day in a volume of 0.1 ml/10 g. These agents were administered once a day for consecutive 14 days. The animals in the negative control group were given an equal amount of solvent (1% DMSO in physiological saline). During the administration and recovery periods, the body weight and tumor size of the mice were measured 2-3 times per week. The tumor volume and relative tumor volume were calculated based on the measured data. The tumor volume (TV) was calculated by a formula below: TV=1/2×a×b^2, where a and b represent the major and minor diameters of the tumor, respectively. According to the measurement results, the relative tumor volume (RTV) was calculated, by a formula below: RTV=Vt/V0, where V0 is the tumor volume at the start of the experiment, and Vt is the tumor volume measured each time.

Compound: COc1cc(C2CCNCC2)c(C)cc1Nc1ncc(Cl)c(Nc2ccccc2S(=O)(=O)C(C)C)n1 [Compound I-3, 5-chloro-N4-(2-(isopropylsulfonyl)phenyl)-N2-(2-D3-methoxy-5-methyl-4-(piperidin-4-yl)phenyl)pyrimidin-2,4-diamine]
IC50 (Karpas 299 cells; 72 hrs): 7.64 nM
IC50 (ALK enzyme; listed as 3, read-out: IC50 range): 1 to 10 nM
IC50 (NCI-H2228 cells; 72 hrs): 41.3 nM
IC50 (Ba/F3 cells; 72 hrs): 1240 nM
IC50 (NCI-H3122 cells; 72 hrs): 4.03 nM

Compound: [2H]C([2H])([2H])Oc1cc(C2CCNCC2)c(C)cc1Nc1ncc(Cl)c(Nc2ccccc2S(=O)(=O)C(C)C)n1 [Compound I-3, 5-chloro-N4-(2-(isopropylsulfonyl)phenyl)-N2-(2-D3-methoxy-5-methyl-4-(piperidin-4-yl)phenyl)pyrimidin-2,4-diamine]
IR (%) ([1]; 3 mg/kg qd intragastric): 12.86%
RTV d21 ([1]; 3 mg/kg qd intragastric): 3.12 ± 0.23
T/C (%) ([1]; 3 mg/kg qd intragastric): 77.45%
IR (%) ([1]; 10 mg/kg qd intragastric): 53.39%
RTV d21 ([1]; 10 mg/kg qd intragastric): 1.70 ± 0.20
T/C (%) ([1]; 10 mg/kg qd intragastric): 45.33%
IR (%) ([1]; 30 mg/kg qd intragastric): 77.14%
RTV d21 ([1]; 30 mg/kg qd intragastric): 0.79 ± 0.17
T/C (%) ([1]; 30 mg/kg qd intragastric): 21.07%

Compound: [2H]C([2H])([2H])C([2H])(Oc1cc(C2CCNCC2)c(C)cc1Nc1ncc(Cl)c(Nc2ccccc2S(=O)(=O)C(C)C)n1)C([2H])([2H])[2H]
IC50 (Karpas 299 cells; Homo sapiens, KARPAS-299, 72 hrs): 45.7 nM
IC50 (NCI-H2228 cells; Homo sapiens, NCI-H2228, 72 hrs): 111 nM
IC50 (Ba/F3 cells; Mus musculus, BaF3, 72 hrs): 2890 nM
IC50 (NCI-H3122 cells; Homo sapiens, NCI-H3122, 72 hrs): 28.4 nM

Compound: COc1cc(N2CCC(N3CCN(C)CC3)CC2)ccc1Nc1nc(Nc2ccccc2S(=O)(=O)C(C)C)c2cc[nH]c2n1 [Compound I-24]
IC50 (ALK enzyme; read-out: IC50 range): 10 to 100 nM

Compound: COc1cc(N2CCNCC2)c(C)cc1Nc1ncnc(Nc2ccccc2S(=O)(=O)C(C)C)n1 [Compound I-42, N2-(2-D3-methoxy-4-(piperazin-1-yl)-5-methyl-phenyl)-N4-(2-(isopropylsulfonyl)phenyl)-1,3,5-triazin-2,4-diamine]
IC50 (ALK enzyme; read-out: IC50 range): 1 to 10 nM

Compound: COc1cc(C2CCNCC2)c(C)cc1Nc1ncc(-c2ccccc2)c(Nc2ccccc2S(=O)(=O)C(C)C)n1 [Compound I-11, N4-(2-(isopropylsulfonyl)phenyl)-N2-(2-D3-methoxy-5-methyl-4-(piperidin-4-yl)phenyl)-5-phenylpyrimidin-2,4-diamine]
IC50 (ALK enzyme; read-out: IC50 range): 10 to 100 nM

Compound: COc1cc(N2CCC(N(C)C)CC2)ccc1Nc1ncc(Cl)c(Nc2ccccc2P(C)(C)=O)n1 [Compound I-37, (2-((5-chloro-2-((4-(4-(dimethylamino)piperidin-1-yl)-2-D3-methoxyphenyl)amino)pyrimidin-4-yl)amino)phenyl)dimethylphosphorus oxide]
IC50 (ALK enzyme; read-out: IC50 range): 1 to 10 nM

Compound: COc1cc(N2CCC(N3CCOCC3)CC2)ccc1Nc1nc(Nc2ccccc2S(=O)(=O)C(C)C)c2ccccc2n1 [Compound I-28, N4-(2-(isopropylsulfonyl)phenyl)-N2-(2-D3-methoxy-4-(4-morpholinopiperidin-1-yl)phenyl)quinazolin-2,4-diamine]
IC50 (ALK enzyme; read-out: IC50 range): 10 to 100 nM

Compound: COc1cc(C2CCNCC2)ccc1Nc1ncnc(Nc2ccccc2S(=O)(=O)C(C)C)n1 [Compound I-39, N2-(2-(isopropylsulfonyl)phenyl)-N4-(2-D3-methoxy-4-(4-piperidin-4-yl)phenyl)-1,3,5-triazin-2,4-diamine]
IC50 (ALK enzyme; read-out: IC50 range): 1 to 10 nM

Continued, values first:

IC50 (ALK enzyme; read-out: IC50 range): 1 to 10 nM
Compound: COc1cc(C2CCNCC2)c(C)cc1Nc1ncnc(Nc2ccccc2S(=O)(=O)C(C)C)n1 [Compound I-40, N2-(2-(isopropylsulfonyl)phenyl)-N4-(2-D3-methoxy-5-methyl-4-(piperidin-4-yl)phenyl)-1,3,5-triazin-2,4-diamine]

IC50 (ALK enzyme; read-out: IC50 range): 1 to 10 nM
Compound: CCOc1cc(C2CCNCC2)c(Cl)cc1Nc1ncc(Cl)c(Nc2ccccc2S(=O)(=O)C(C)C)n1 [Compound I-19, 5-chloro-N2-(5-chloro-2-D5-ethoxy-4-(piperidin-4-yl)phenyl)-N4-(2-(isopropylsulfonyl)phenyl)pyrimidin-2,4-diamine]

IC50 (ALK enzyme; read-out: IC50 range): 1 to 10 nM
Compound: [2H]C([2H])([2H])Oc1cc(C2CCNCC2)c(C)cc1Nc1ncc(C(F)(F)F)c(Nc2ccccc2S(=O)(=O)C(C)C)n1 [Compound I-5, N4-(2-(isopropylsulfonyl)phenyl)-N2-(2-methoxy-5-methyl-4-(piperidin-4-yl)phenyl)-5-(trifluoromethyl)pyrimidin-2,4-diamine]

IC50 (ALK enzyme; read-out: IC50 range): 1 to 10 nM
Compound: COc1cc(N2CCC(N3CCSCC3)CC2)ccc1Nc1ncc(Cl)c(Nc2ccccc2S(=O)(=O)C(C)C)n1 [Compound I-33, 5-chloro-N4-(2-(isopropylsulfonyl)phenyl)-N2-(2-D3-methoxy-4-(4-thiomorpholinopiperidin-1-yl)phenyl)pyrimidin-2,4-diamine]

IC50 (ALK enzyme; read-out: IC50 range): 1 to 10 nM
Compound: CCc1cnc(Nc2cc(C)c(C3CCNCC3)cc2OC)nc1Nc1ccccc1S(=O)(=O)C(C)C [Compound I-9, 5-ethyl-N4-(2-(isopropylsulfonyl)phenyl)-N2-(2-D3-methoxy-5-methyl-4-(piperidin-4-yl)phenyl)pyrimidin-2,4-diamine]

IC50 (ALK enzyme; read-out: IC50 range): 1 to 10 nM
Compound: COc1cc(N2CCNCC2)ccc1Nc1ncnc(Nc2ccccc2S(=O)(=O)C(C)C)n1 [Compound I-41, N2-(2-D3-methoxy-4-(piperazin-1-yl)phenyl)-N4-(2-(isopropylsulfonyl)phenyl)-1,3,5-triazin-2,4-diamine]
